In PubChem BioAssay AID242 (DTP/NCI, 2004):
Values joined by “and” are separate entries in the source; they are usually repeats but may differ in a detail not shown here. Equal values may be shown once. Inconclusive results and toxic doses are left out. Rule for the calls: active = survival T/C of 150% or more; inactive = T/C below 125% in these data.

Tested on: BDF1 mice, Lymphoma 8 ip, survival T/C
Experiment: NCI In Vivo Anticancer Drug Screen. Data for tumor model Lymphoma 8 (intraperitoneal) in B6D2F1 (BDF1) mice
Details: higher = longer survival
Procedure: The antitumor activity of compounds was measured in mice bearing transplantable tumors. Survival or tumor size were measured and the results are expressed as the measurement made in the treated group (T) divided by the measurement made in the vehicle treated control group (C). The tumor model used in this assay is Lymphoma 8 (intraperitoneal) in B6D2F1 (BDF1) mice

[1] = endpoint: survival time, mean or median, dose: 200.0 mg/kg/injection, schedule: Q01DX008 (ip), vehicle: saline
[2] = endpoint: survival time, mean or median, dose: 62.5 mg/kg/injection, schedule: Q01DX010 (ip), vehicle: saline
[3] = endpoint: survival time, mean or median, dose: 125.0 mg/kg/injection, schedule: Q01DX010 (ip), vehicle: saline
[4] = endpoint: survival time, mean or median, dose: 250.0 mg/kg/injection, schedule: Q01DX010 (ip), vehicle: saline
[5] = endpoint: survival time, mean or median, dose: 500.0 mg/kg/injection, schedule: Q01DX010 (ip), vehicle: saline
[6] = endpoint: survival time, mean or median, dose: 50.0 mg/kg/injection, schedule: Q01DX008 (ip), vehicle: saline
[7] = endpoint: survival time, mean or median, dose: 20.0 mg/kg/injection, schedule: Q01DX010 (ip), vehicle: saline
[8] = endpoint: survival time, mean or median, dose: 40.0 mg/kg/injection, schedule: Q01DX010 (ip), vehicle: saline
[9] = endpoint: survival time, mean or median, dose: 80.0 mg/kg/injection, schedule: Q01DX010 (ip), vehicle: saline
[10] = endpoint: survival time, mean or median, dose: 31.3 mg/kg/injection, schedule: Q01DX010 (ip), vehicle: saline
[11] = endpoint: survival time, mean or median, dose: 25.0 mg/kg/injection, schedule: Q01DX008 (ip), vehicle: saline
[12] = endpoint: survival time, mean or median, dose: 100.0 mg/kg/injection, schedule: Q01DX008 (ip), vehicle: saline
[13] = endpoint: survival time, mean or median, dose: 25.0 mg/kg/injection, schedule: Q01DX015 (ip), vehicle: carboxymethylcellulose (CMC)
[14] = endpoint: survival time, mean or median, dose: 50.0 mg/kg/injection, schedule: Q01DX015 (ip), vehicle: carboxymethylcellulose (CMC)
[15] = endpoint: survival time, mean or median, dose: 3.13 mg/kg/injection, schedule: Q01DX010 (ip), vehicle: saline
[16] = endpoint: survival time, mean or median, dose: 6.25 mg/kg/injection, schedule: Q01DX010 (ip), vehicle: saline
[17] = endpoint: survival time, mean or median, dose: 12.5 mg/kg/injection, schedule: Q01DX010 (ip), vehicle: saline
[18] = endpoint: survival time, mean or median, dose: 25.0 mg/kg/injection, schedule: Q01DX010 (ip), vehicle: saline
[19] = endpoint: survival time, mean or median, dose: 4.0 mg/kg/injection, schedule: Q01DX010 (ip), vehicle: saline
[20] = endpoint: survival time, mean or median, dose: 8.0 mg/kg/injection, schedule: Q01DX010 (ip), vehicle: saline

Measured: T/C

O=c1cnn(C2OC(CO)C(O)C2O)c(=O)[nH]1 (centres undefined)
inactive: [1] 115 % of control | endpoint: survival time, mean or median, dose: 800.0 mg/kg/injection, schedule: Q01DX008 (ip), vehicle: saline 96 % of control

O=c1cn[nH]c(=O)[nH]1
inactive: [2] 95 % of control and 100 % of control and 109 % of control | [3] 91 % of control and 95 % of control and 110 % of control | [4] 90 % of control and 93 % of control and 115 % of control | [5] 100 % of control (2×) and 106 % of control

NC(=O)/C=C/NC(=O)/C=N\O
inactive: [6] 92 % of control | [1] 88 % of control

NC(C/[N+]([O-])=N/O)C(=O)O (centres undefined)
inactive: endpoint: median survival time, dose: 12.5 mg/kg/injection, schedule: Q01DX009 (ip), vehicle: saline 113 % of control | endpoint: median survival time, dose: 25.0 mg/kg/injection, schedule: Q01DX009 (ip), vehicle: saline 117 % of control

CN(Cc1cnc2nc(N)nc(N)c2n1)c1ccc(C(=O)N[C@@H](CCC(=O)O)C(=O)O)cc1
inactive: endpoint: median survival time, dose: 1.0 mg/kg/injection, schedule: Q01DX009 (ip), vehicle: sodium bicarbonate 118 % of control | endpoint: median survival time, dose: 2.0 mg/kg/injection, schedule: Q01DX009 (ip), vehicle: sodium bicarbonate 93 % of control

OCC1OC(n2cnc3c(=S)nc[nH]c32)C(O)C1O (centres undefined)
inactive: [7] 104 % of control and 112 % of control | [8] 100 % of control and 109 % of control and 112 % of control | [9] 105 % of control and 118 % of control and 121 % of control | endpoint: survival time, mean or median, dose: 160.0 mg/kg/injection, schedule: Q01DX010 (ip), vehicle: saline 93 % of control and 118 % of control

COc1cc(-c2ccc(Nc3ccccc3C(=O)O)c(OC)c2)ccc1N
inactive: [7] 92 % of control and 100 % of control | [8] 100 % of control | [9] 92 % of control and 120 % of control

S=P(N1CCOCC1)(N1CC1)N1CC1
inactive: endpoint: survival time, mean or median, dose: 2.5 mg/kg/injection, schedule: Q01DX010 (ip), vehicle: saline 100 % of control and 113 % of control | endpoint: survival time, mean or median, dose: 5.0 mg/kg/injection, schedule: Q01DX010 (ip), vehicle: saline 104 % of control and 109 % of control | endpoint: survival time, mean or median, dose: 10.0 mg/kg/injection, schedule: Q01DX010 (ip), vehicle: saline 113 % of control | [7] 86 % of control and 122 % of control

CCCCNc1ncnc2c1cnn2C
inactive: [10] 87 % of control and 95 % of control and 100 % of control | [2] 86 % of control and 97 % of control and 100 % of control | [3] 90 % of control

CN(N=O)C(=O)N[C@@H](C=O)[C@@H](O)[C@H](O)[C@H](O)CO
inactive: endpoint: survival time, mean or median, dose: 12.5 mg/kg/injection, schedule: Q01DX008 (im), vehicle: saline 124 % of control | endpoint: survival time, mean or median, dose: 12.5 mg/kg/injection, schedule: Q01DX008 (ip), vehicle: saline 116 % of control | endpoint: survival time, mean or median, dose: 12.5 mg/kg/injection, schedule: Q01DX008 (iv), vehicle: saline 97 % of control | endpoint: survival time, mean or median, dose: 12.5 mg/kg/injection, schedule: Q01DX008 (sc), vehicle: saline 116 % of control | [11] 115 % of control | endpoint: survival time, mean or median, dose: 25.0 mg/kg/injection, schedule: Q01DX008 (iv), vehicle: saline 106 % of control | endpoint: survival time, mean or median, dose: 25.0 mg/kg/injection, schedule: Q01DX008 (sc), vehicle: saline 124 % of control | endpoint: survival time, mean or median, dose: 50.0 mg/kg/injection, schedule: Q01DX008 (iv), vehicle: saline 107 % of control | endpoint: survival time, mean or median, dose: 100.0 mg/kg/injection, schedule: Q01DX008 (im), vehicle: saline 86 % of control | [12] 96 % of control | endpoint: survival time, mean or median, dose: 100.0 mg/kg/injection, schedule: Q01DX008 (iv), vehicle: saline 106 % of control | endpoint: survival time, mean or median, dose: 100.0 mg/kg/injection, schedule: Q01DX Z (oral), vehicle: saline 100 % of control | endpoint: survival time, mean or median, dose: 200.0 mg/kg/injection, schedule: Q01DX Z (oral), vehicle: saline 100 % of control | endpoint: survival time, mean or median, dose: 400.0 mg/kg/injection, schedule: Q01DX Z (oral), vehicle: saline 117 % of control | endpoint: survival time, mean or median, dose: 800.0 mg/kg/injection, schedule: Q01DX Z (oral), vehicle: saline 97 % of control

CCN(CCNc1ccc(C)c2sc3cc(Cl)ccc3c(=O)c12)CC(C)O (centres undefined)
inactive: endpoint: survival time, mean or median, dose: 7.8 mg/kg/injection, schedule: Q01DX010 (ip), vehicle: saline 100 % of control | endpoint: survival time, mean or median, dose: 15.6 mg/kg/injection, schedule: Q01DX010 (ip), vehicle: saline 100 % of control | [10] 96 % of control

CCN(CC)c1ccc2cc3ccc(=[N+](CC)CC)cc-3oc2c1
inactive: endpoint: survival time, mean or median, dose: 1.0 mg/kg/injection, schedule: Q01DX010 (ip), vehicle: saline 96 % of control

CC(=O)OCC1OC(n2cnc3c(=S)nc[nH]c32)C(OC(C)=O)C1OC(C)=O (centres undefined)
inactive: [13] 101 % of control | [14] 109 % of control | endpoint: survival time, mean or median, dose: 100.0 mg/kg/injection, schedule: Q01DX015 (ip), vehicle: carboxymethylcellulose (CMC) 104 % of control

COc1cc([C@@H]2c3cc4c(cc3[C@H](O)[C@H]3COC(=O)[C@@H]23)OCO4)cc(OC)c1OC
inactive: endpoint: survival time, mean or median, dose: 10.0 mg/kg/injection, schedule: Q01DX015 (ip), vehicle: carboxymethylcellulose (CMC) 98 % of control | endpoint: survival time, mean or median, dose: 20.0 mg/kg/injection, schedule: Q01DX015 (ip), vehicle: carboxymethylcellulose (CMC) 119 % of control

C[C@H]1C(=O)O[C@@H]2CCN3CC=C(COC(=O)[C@](C)(O)[C@@]1(C)O)[C@H]23
inactive: [15] 116 % of control | [16] 100 % of control | [17] 104 % of control | [18] 104 % of control

CC(=O)N(C)C
inactive: [2] 86 % of control and 105 % of control and 121 % of control | [3] 95 % of control and 100 % of control and 112 % of control | [4] 95 % of control and 105 % of control | [5] 95 % of control and 100 % of control and 115 % of control

N#CCSc1ncnc2nc[nH]c12
inactive: endpoint: survival time, mean or median, dose: 15.0 mg/kg/injection, schedule: Q01DX010 (ip), vehicle: saline 100 % of control | endpoint: survival time, mean or median, dose: 30.0 mg/kg/injection, schedule: Q01DX010 (ip), vehicle: saline 95 % of control and 104 % of control | endpoint: survival time, mean or median, dose: 60.0 mg/kg/injection, schedule: Q01DX010 (ip), vehicle: saline 100 % of control | endpoint: survival time, mean or median, dose: 120.0 mg/kg/injection, schedule: Q01DX010 (ip), vehicle: saline 100 % of control

CCOC(N)=O
inactive: [3] 105 % of control | [4] 100 % of control | [5] 100 % of control

Nc1nc(=S)c2ncn(C3OC(CO)C(O)C3O)c2[nH]1 (centres undefined)
inactive: [19] 92 % of control | [20] 89 % of control

CC(CCC(C)OS(C)(=O)=O)OS(C)(=O)=O (centres undefined)
inactive: endpoint: survival time, mean or median, dose: 2.0 mg/kg/injection, schedule: Q01DX010 (ip), vehicle: saline 92 % of control and 100 % of control | [19] 103 % of control and 104 % of control | [20] 103 % of control and 104 % of control | endpoint: survival time, mean or median, dose: 16.0 mg/kg/injection, schedule: Q01DX010 (ip), vehicle: saline 100 % of control and 116 % of control

Clc1ccc2c(Cl)ncnc2c1
inactive: [13] 95 % of control | [14] 88 % of control

CN(N=O)C(=O)NC(C=O)C(O)C(O)C(O)CO (centres undefined)
inactive: [17] 96 % of control | [11] 115 % of control | [18] 100 % of control | [6] 111 % of control | endpoint: survival time, mean or median, dose: 50.0 mg/kg/injection, schedule: Q01DX010 (ip), vehicle: saline 121 % of control | [12] 115 % of control | endpoint: survival time, mean or median, dose: 100.0 mg/kg/injection, schedule: Q01DX010 (ip), vehicle: saline 121 % of control

CCCNc1ncnc2[nH]ncc12
inactive: [15] 104 % of control (2×) and 105 % of control | [16] 105 % of control and 106 % of control | [17] 90 % of control and 100 % of control and 114 % of control

N[C@@H](Cc1ccc(N(CCCl)CCCl)cc1)C(=O)O
inactive: endpoint: survival time, mean or median, dose: 4.0 mg/kg/injection, schedule: Q01DX015 (ip), vehicle: carboxymethylcellulose (CMC) 91 % of control

CS(=O)(=O)OCCN(CCOS(C)(=O)=O)c1ccc(N=O)cc1
inactive: endpoint: survival time, mean or median, dose: 0.25 mg/kg/injection, schedule: Q01DX010 (ip), vehicle: saline 121 % of control | endpoint: survival time, mean or median, dose: 0.5 mg/kg/injection, schedule: Q01DX010 (ip), vehicle: saline 110 % of control | endpoint: survival time, mean or median, dose: 63.0 micrograms/kg/injection, schedule: Q01DX010 (ip), vehicle: saline 113 % of control | endpoint: survival time, mean or median, dose: 125.0 micrograms/kg/injection, schedule: Q01DX010 (ip), vehicle: saline 120 % of control | endpoint: survival time, mean or median, dose: 500.0 micrograms/kg/injection, schedule: Q01DX010 (ip), vehicle: saline 123 % of control
